{"source": "paper PMC3056319", "about": "(Journal of medicinal chemistry, 2011)", "key": {"[1]": {"test_system": "P. falciparum multidrug resistant C235 strain (Thailand)", "test": "microbe, parasite or virus in culture", "type": "cell-based"}, "[2]": {"test_system": "P. falciparum Indochina W2 clone", "test": "microbe, parasite or virus in culture", "type": "cell-based"}, "recombinant BoNT/A LC [3]": {"biological_target": "T1, recombinant BoNT/A LC (Clostridium botulinum, UniProt P0DPI0)", "T1 sequence (P0DPI0 2-448 limits assumed)": "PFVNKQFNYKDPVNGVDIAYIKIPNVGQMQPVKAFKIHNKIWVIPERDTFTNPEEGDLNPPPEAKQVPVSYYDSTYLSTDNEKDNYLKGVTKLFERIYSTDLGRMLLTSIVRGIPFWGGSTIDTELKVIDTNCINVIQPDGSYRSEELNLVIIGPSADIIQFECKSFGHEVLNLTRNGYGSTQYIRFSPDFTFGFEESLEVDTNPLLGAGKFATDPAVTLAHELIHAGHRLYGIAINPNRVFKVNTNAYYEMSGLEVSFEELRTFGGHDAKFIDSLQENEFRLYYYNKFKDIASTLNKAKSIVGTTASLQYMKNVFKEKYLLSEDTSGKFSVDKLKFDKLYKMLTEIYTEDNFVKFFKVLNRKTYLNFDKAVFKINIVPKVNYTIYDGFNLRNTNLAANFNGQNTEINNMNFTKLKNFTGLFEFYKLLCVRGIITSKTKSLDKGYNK", "conditions": "cited from earlier work"}, "[4]": {"test_system": "P. falciparum African D6 clone", "test": "microbe, parasite or virus in culture", "type": "cell-based", "conditions": "Plasmodium falciparum, D6, read-out: Antimalarial activity IC50, D6"}, "recombinant BoNT/A LC [5]": {"biological_target": "T1, recombinant BoNT/A LC", "type": "biochemical, Closteridium botulinum"}, "EBOV": {"test_system": "EBOV", "conditions": "cited from earlier work"}, "[6]": {"test_system": "RAW 264.7 (rat macrophage) cell line", "type": "cell-based"}, "P. berghei (P Line)": {"test_system": "P. berghei (P Line)", "conditions": "mouse"}, "[7]": {"test_system": "Recombinant Zaire Ebola virus (EBOV-eGFP)", "test": "microbe, parasite or virus in culture", "type": "cell-based", "conditions": "read-out: EBOV inhibition IC50"}, "[8]": {"test_system": "P. berghei (ANKA strain) sporozoites", "design": "species or system ICR mice (Mus musculus)", "conditions": "mouse, in vivo"}, "Vero76 cells": {"test_system": "Vero76 cells", "conditions": "African green monkey"}}, "note": "Read-outs that look alike come from different tables or passages of the source."}
{"smiles": "CCN(CC)CCCC(C)Nc1ccnc2cc(Cl)ccc12", "note": "(stereo not drawn) [CQ, chloroquine, reference compound]", "values": [{"measurement": "IC50", "setting": "[1]; Plasmodium falciparum, read-out: Antimalarial activity IC50, C235", "value": 139, "unit": "nM"}, {"measurement": "IC50", "setting": "[2]; Plasmodium falciparum, W2, read-out: Antimalarial activity IC50, W2", "value": 456, "unit": "nM"}, {"measurement": "BoNT/A LC inhibition", "setting": "recombinant BoNT/A LC [3]", "value": "weakly inhibit the BoNT/A LC"}, {"measurement": "IC50", "setting": "[4]", "value": 12.3, "unit": "nM"}]}
{"smiles": "Cc1cc(NCCCN)c2ccc3c(ccc4c(NCCCN)cc(C)nc43)c2n1.Cl", "note": "[Compound 7, N,N'-bis(3-aminopropyl)-3,9-dimethylquino[8,7-h]quinoline-1,7-diamine tetrahydrochloride]", "values": [{"measurement": "type of inhibition kinetics", "setting": "recombinant BoNT/A LC [5]", "value": "competitive inhibitors"}]}
{"smiles": "Cc1cc(NCCN)c2ccc3c(ccc4c(NCCN)cc(C)nc43)c2n1.Cl", "note": "[Compound 8, N,N'-bis(2-aminoethyl)-3,9-dimethylquino[8,7-h]quinoline-1,7-diamine tetrahydrochloride]", "values": [{"measurement": "type of inhibition kinetics", "setting": "recombinant BoNT/A LC [5]", "value": "competitive inhibitors"}]}
{"smiles": "Cc1cc(NCCCN(C)C)c2ccc3c(ccc4c(NCCCN(C)C)cc(C)nc43)c2n1.Cl", "note": "[Compound 9, N,N'-bis[3-(dimethylamino)propyl]-3,9-dimethylquino[8,7-h]quinoline-1,7-diamine tetrahydrochloride]", "values": [{"measurement": "anti-EBOV efficacy in vivo", "setting": "EBOV", "value": "possesses anti-EBOV efficacy in vivo with no toxicity"}]}
{"smiles": "CCN(CC)CCNc1cc(C)nc2c1ccc1c2ccc2c(NCCN(CC)CC)cc(C)nc21.Cl", "note": "[Compound 11, N,N'-bis[2-(diethylamino)ethyl]-3,9-dimethylquino[8,7-h]quinoline-1,7-diamine tetrahydrochloride]", "values": [{"measurement": "Resistance index (RI) C235/D6", "setting": "[1]", "value": "0.57/0.55"}, {"measurement": "Selectivity index (IC50) D6", "setting": "[6]", "value": "1555.41; 1189.46"}, {"measurement": "Selectivity index (IC50) W2", "setting": "[6]", "value": "2686.21; 1058.99"}, {"measurement": "Selectivity index (IC90) C235", "setting": "[6]", "value": "281.66; 2827.70"}, {"measurement": "Selectivity index (IC90) D6", "setting": "[6]", "value": "1555.41; 1189.46"}, {"measurement": "Selectivity index (IC90) W2", "setting": "[6]", "value": "2686.21; 1058.99"}, {"measurement": "Resistance index (RI) W2/D6", "setting": "[2]", "value": "0.57/0.55"}, {"measurement": "toxicity in vivo", "setting": "P. berghei (P Line); ICR, po", "value": ">60; >60; no toxicity in vivo"}, {"measurement": "in vivo clinical toxicity", "setting": "P. berghei (P Line)", "value": "No evidence of in vivo clinical toxicity"}, {"measurement": "day of succumbing to infection (post-parasite inoculation), non-cured mice", "setting": "P. berghei (P Line); in vivo", "value": "13 to 21", "unit": "days"}, {"measurement": "mice cured (negative blood smear on day 31 post-infection)", "setting": "P. berghei (P Line); in vivo", "value": "cured one mouse out of five tested"}, {"measurement": "IC50", "setting": "[7]", "value": "5000 to 10000", "unit": "nM"}, {"measurement": "delay of parasite patency relative to control mice", "setting": "[8]", "value": "1 to 2", "unit": "days"}, {"measurement": "delayed patency", "setting": "[8]", "value": 1, "unit": "days"}, {"measurement": "causal prophylactic protection", "setting": "[8]; po", "value": "does not provide prophylactic protection"}, {"measurement": "Toxicity at 20 µM", "setting": "Vero76 cells", "value": "<20", "unit": "%"}, {"measurement": "cell toxicities in dose-response studies", "setting": "Vero76 cells", "value": "< 25", "unit": "%"}]}
{"smiles": "Cc1cc(NCCCN2CCCCC2)c2ccc3c(ccc4c(NCCCN5CCCCC5)cc(C)nc43)c2n1.Cl", "note": "[Compound 14, 3,9-dimethyl-N,N'-bis(3-piperidin-1-ylpropyl)quino[8,7-h]quinoline-1,7-diamine tetrahydrochloride]", "values": [{"measurement": "Toxicity at 20 µM", "setting": "Vero76 cells", "value": "<20", "unit": "%"}, {"measurement": "cell toxicities in dose-response studies", "setting": "Vero76 cells", "value": "< 25", "unit": "%"}]}
{"smiles": "Cc1cc(NCCCN2CCOCC2)c2ccc3c(ccc4c(NCCCN5CCOCC5)cc(C)nc43)c2n1.Cl", "note": "[Compound 16, 3,9-dimethyl-N,N'-bis(3-morpholin-4-ylpropyl)quino[8,7-h]quinoline-1,7-diamine tetrahydrochloride]", "values": [{"measurement": "Selectivity index (IC50) C235", "setting": "[6]", "value": "929.32; 635.31"}, {"measurement": "Selectivity index (IC50) D6", "setting": "[6]", "value": "1430.40; 1302.12"}, {"measurement": "Selectivity index (IC50) W2", "setting": "[6]", "value": "3740.50; 1728.68"}, {"measurement": "Selectivity index (IC90) C235", "setting": "[6]", "value": "929.32; 635.31"}, {"measurement": "Selectivity index (IC90) D6", "setting": "[6]", "value": "1430.40; 1302.12"}, {"measurement": "Selectivity index (IC90) W2", "setting": "[6]", "value": "3740.50; 1728.68"}, {"measurement": "Resistance index (RI) W2/D6", "setting": "[2]", "value": "0.38/1.54"}, {"measurement": "IC50", "setting": "[7]; Zaire ebolavirus, Vero 76, 48 h", "value": "~5000", "unit": "nM"}, {"measurement": "IC50", "setting": "[7]", "value": "2500 to 5000", "unit": "nM"}, {"measurement": "Toxicity at 20 µM", "setting": "Vero76 cells", "value": "<20", "unit": "%"}, {"measurement": "cell toxicities in dose-response studies", "setting": "Vero76 cells", "value": "< 25", "unit": "%"}]}
{"smiles": "Cc1cc(NCCN2CCOCC2)c2ccc3c(ccc4c(NCCN5CCOCC5)cc(C)nc43)c2n1.Cl", "note": "[Compound 17, 3,9-dimethyl-N,N'-bis(2-morpholin-4-ylethyl)quino[8,7-h]quinoline-1,7-diamine tetrahydrochloride]", "values": [{"measurement": "Resistance index (RI) C235/D6", "setting": "[1]", "value": "1.03/1.66"}, {"measurement": "Selectivity index (IC50) C235", "setting": "[6]", "value": "1033.94; 1815.35"}, {"measurement": "Selectivity index (IC50) D6", "setting": "[6]", "value": "1715.68; 2374.36"}, {"measurement": "Selectivity index (IC50) W2", "setting": "[6]", "value": "1662.42; 2601.48"}, {"measurement": "Selectivity index (IC90) C235", "setting": "[6]", "value": "1033.94; 1815.35"}, {"measurement": "Selectivity index (IC90) D6", "setting": "[6]", "value": "1715.68; 2374.36"}, {"measurement": "Selectivity index (IC90) W2", "setting": "[6]", "value": "1662.42; 2601.48"}, {"measurement": "Resistance index (RI) W2/D6", "setting": "[2]", "value": "1.03/1.66"}]}
